# From publication PMC9959518, “Influence of the Drug Position on Bioactivity in Angiopep-2—Daunomycin Conjugates” (International Journal of Molecular Sciences, 2023)
# Experiments:
# [1] = system: U87 human glioblastoma cells; format: cell-based; conditions: MTT test; for IC50: 0.05–50 µM, treated 24 h (method: overnight), washed, further 48 h (method: 72 h) at 37 °C, two independent experiments with four parallel measurements
# Description: The in vitro cytostatic effect of the synthesized peptide (1) and daunomycin-peptide conjugates (2–8) was investigated on U87 human glioblastoma cells. The cells were treated with the peptide and conjugates at different concentrations (0.05–50 μM) for 24 h, and after a washing step, the cells were incubated for another […] at 37 °C. The cytostatic effect of the compounds was determined using the MTT test.
# U87 human glioblastoma cell line was cultured in DMEM supplemented with 10% FBS, 2 mM L-glutamine, penicillin–streptomycin antibiotic mixture (50 IU/mL and 50 μg/mL, respectively), 1 mM sodium pyruvate, and 1% non-essential amino acid mixture. The cell culture was maintained at 37 °C in a humidified atmosphere with 5% CO2. The U87 cell line was a generous gift of Dr. József Tóvári (Department of Experimental Pharmacology, National Institute of Oncology, Budapest, Hungary).
# For determining the cytostatic effect of the conjugates, U87 cells were grown to confluency and then divided into 96-well tissue culture plates with an initial cell number of 5.0 × 10^3 cells/well. After 24 h incubation at 37 °C, the cells were treated with the compounds overnight in the concentration range of 0.05–50 μM in 200 μL final volume containing 1.0 v/v% DMSO, whereas control cells were treated only with serum-free medium or with 1.0 v/v% DMSO at the same conditions. After the incubation, cells were washed twice with serum-free medium, then the cells were cultured for an additional 72 h in 10% serum-containing medium at 37 °C. Following that, MTT solution (at c = 0.37 mg/mL final concentration) was added to each well. The respiratory chain [32] and other electron transport systems reduced MTT and thereby formed non-water-soluble violet formazan crystals within the cells. The amount of these crystals can be determined by spectrophotometry and serves as an estimate for the number of mitochondria in addition to the number of living cells in the well [35]. After 3 h of incubation with MTT, the cells were centrifuged for 5 min at 2000 rpm and the supernatant was removed. The obtained formazan crystals were dissolved in DMSO (100 µL), and the optical density (OD) of the samples was measured at λ = 540 nm and 620 nm, respectively, using ELISA Reader (iEMS Reader, Labsystems, Finland). The OD620 values were subtracted from the OD540 values. The percent of cytostasis was calculated with the following equation:(1) Cytostatic effect (%)=1−ODtreated/ODcontrol×100 where the ODtreated and ODcontrol values correspond to the optical densities of the treated and the control wells, respectively. In each case, two independent experiments were carried out with four parallel measurements. Cytostasis was plotted as a function of concentration, and the half-maximal inhibitory concentration was calculated based on a sigmoid curve fitted on the data points using Microcal™ Origin 2018 software. IC50 represents the concentration of a compound that is required for 50% inhibition, expressed in micromolar units.
# [2] = Degradation in rat liver lysosomal homogenate followed by HPLC-MS; format: in vitro ADME
# Description: The conjugates were treated with lysosomal homogenate for 5 min, 1 h, 6 h, 24 h, and 72 h, and the degradation was followed by HPLC-MS. Control studies investigating conjugates in buffer (without lysosomal homogenate) were also performed, and for these, all conjugates were stable. […] At 6 h, it was the main drug-containing metabolite, and at 72 h, only this Dau-containing fragment could be detected. This time-dependent pattern was also observed in the case of conjugate 2, where Dau was attached to the side chain of Lys in position 15, and the formed smallest metabolite was H-Lys(Dau=Aoa)-OH. […] It is likely that, in this case, a large steric hindrance occurred, and the enzymes were not able to access the peptide bonds around ^10Lys. This observation might explain the discrepancy between the efficient cellular uptake and the lower anticancer activity of this conjugate.
# A stock solution with a concentration of 2.5 μg/μL was prepared from the conjugates in distilled water, and this was diluted 100× with 0.2 M sodium acetate buffer (pH 5.03). The rat liver lysosomal homogenate (16.6 μg/μL) was diluted 20× with the same buffer, and then the two solutions were mixed in a 1:1 (protein:peptide, m/m) ratio. In each case, control measurements were also performed, in which buffer was added to the conjugates instead of the lysosomal homogenate. The solutions were stirred at 600 rpm at 37 °C in a thermostat (ThermoMixer, Eppendorf AG, Hamburg, Germany), and after 5 min, 1 h, 6 h, 24 h, and 72 h, 50 μL samples were taken. Each reaction was quenched with 5 μL formic acid and the samples were stored frozen until analysis.
# The HPLC-MS analysis of the samples was performed with a Dionex 3000 HPLC-Q Exactive Focus hybrid quadrupole-orbitrap mass spectrometer (Thermo Fisher Scientific, Bremen, Germany). For separation, a Supelco Ascentis C18 column (3 μm, 100 Å, 150 × 2.1 mm; Merck, Darmstadt, Germany) and gradient elution (0 min 2% B, 1 min 2% B, 17 min 90% B; A eluent: 0.1% formic acid/distilled water, eluent B: 0.1% formic acid/acetonitrile + distilled water (80:20, v/v%), flow rate 0.2 mL/min, 40 °C) was used, and high-resolution mass spectra were recorded in the range of 200–1800 m/z. The data were analyzed using the Xcalibur program (Thermo Fisher Scientific).
SMILES,IC50 [1] [µM],also measured
"C[C@@H](O)[C@H](N)C(=O)N[C@@H](Cc1ccccc1)C(=O)N[C@@H](Cc1ccccc1)C(=O)N[C@@H](Cc1ccc(O)cc1)C(=O)NCC(=O)NCC(=O)N[C@@H](CO)C(=O)N[C@@H](CCCNC(=N)N)C(=O)NCC(=O)N[C@@H](CCCCN)C(=O)N[C@@H](CCCNC(=N)N)C(=O)N[C@@H](CC(N)=O)C(=O)N[C@@H](CC(N)=O)C(=O)N[C@@H](Cc1ccccc1)C(=O)N[C@@H](CCCCN)C(=O)N[C@H](C(=O)N[C@@H](CCC(=O)O)C(=O)N[C@@H](CCC(=O)O)C(=O)N[C@@H](Cc1ccc(O)cc1)C(=O)O)[C@@H](C)O [compound 1, H-TFFYGGSRGKRNNFKTEEY-OH, reference compound]",> 50,in vitro cytostatic effect (in words) ([1]; up to 50 µM): did not show any effect
"COc1cccc2c1C(=O)c1c(O)c3c(c(O)c1C2=O)C[C@@](O)(C(C)=NOCC(=O)NCCCC[C@H](NC(=O)[C@H](Cc1ccccc1)NC(=O)[C@H](CC(N)=O)NC(=O)[C@H](CC(N)=O)NC(=O)[C@H](CCCNC(=N)N)NC(=O)[C@H](CCCCN)NC(=O)CNC(=O)[C@H](CCCNC(=N)N)NC(=O)[C@H](CO)NC(=O)CNC(=O)CNC(=O)[C@H](Cc1ccc(O)cc1)NC(=O)[C@H](Cc1ccccc1)NC(=O)[C@H](Cc1ccccc1)NC(=O)[C@@H](N)[C@@H](C)O)C(=O)N[C@H](C(=O)N[C@@H](CCC(=O)O)C(=O)N[C@@H](CCC(=O)O)C(=O)N[C@@H](Cc1ccc(O)cc1)C(=O)O)[C@@H](C)O)C[C@@H]3O[C@H]1C[C@H](N)[C@H](O)[C@H](C)O1 [compound 2, H-TFFYGGSRGKRNNFK(Dau=Aoa)TEEY-OH]",30.2 ± 6.4,
"COc1cccc2c1C(=O)c1c(O)c3c(c(O)c1C2=O)C[C@@](O)(C(C)=NOCC(=O)N[C@H](C(=O)N[C@@H](Cc1ccccc1)C(=O)N[C@@H](Cc1ccccc1)C(=O)N[C@@H](Cc1ccc(O)cc1)C(=O)NCC(=O)NCC(=O)N[C@@H](CO)C(=O)N[C@@H](CCCNC(=N)N)C(=O)NCC(=O)N[C@@H](CCCCN)C(=O)N[C@@H](CCCNC(=N)N)C(=O)N[C@@H](CC(N)=O)C(=O)N[C@@H](CC(N)=O)C(=O)N[C@@H](Cc1ccccc1)C(=O)N[C@@H](CCCCN)C(=O)N[C@H](C(=O)N[C@@H](CCC(=O)O)C(=O)N[C@@H](CCC(=O)O)C(=O)N[C@@H](Cc1ccc(O)cc1)C(=O)O)[C@@H](C)O)[C@@H](C)O)C[C@@H]3O[C@H]1C[C@H](N)[C@H](O)[C@H](C)O1 [compound 3, Dau=Aoa-TFFYGGSRGKRNNFKTEEY-OH]",10.9 ± 2.8,"time of appearance of the Dau=Aoa-Thr-OH fragment ([2]; 1:1 protein:peptide m/m, 0.2 M sodium acetate pH 5.03, 37 °C): ≤ 1 h"
"COc1cccc2c1C(=O)c1c(O)c3c(c(O)c1C2=O)C[C@@](O)(C(C)=NOCC(=O)NCCCC[C@H](NC(=O)CNC(=O)[C@H](CCCNC(=N)N)NC(=O)[C@H](CO)NC(=O)CNC(=O)CNC(=O)[C@H](Cc1ccc(O)cc1)NC(=O)[C@H](Cc1ccccc1)NC(=O)[C@H](Cc1ccccc1)NC(=O)[C@@H](N)[C@@H](C)O)C(=O)N[C@@H](CCCNC(=N)N)C(=O)N[C@@H](CC(N)=O)C(=O)N[C@@H](CC(N)=O)C(=O)N[C@@H](Cc1ccccc1)C(=O)N[C@@H](CCCCN)C(=O)N[C@H](C(=O)N[C@@H](CCC(=O)O)C(=O)N[C@@H](CCC(=O)O)C(=O)N[C@@H](Cc1ccc(O)cc1)C(=O)O)[C@@H](C)O)C[C@@H]3O[C@H]1C[C@H](N)[C@H](O)[C@H](C)O1 [compound 4, H-TFFYGGSRGK(Dau=Aoa)RNNFKTEEY-OH]",24 ± 5.9,"smallest metabolite H-Lys(Dau=Aoa)-OH at 1 h ([2]; 1:1 protein:peptide m/m, 0.2 M sodium acetate pH 5.03, 37 °C, 1 h): not detectable; release of the smallest metabolite H-Lys(Dau=Aoa)-OH (in words) ([2]; pH 5.03, 37 °C, up to 72 h): not efficiently released"
"COc1cccc2c1C(=O)c1c(O)c3c(c(O)c1C2=O)C[C@@](O)(C(C)=NOCC(=O)NCCCC[C@H](NC(=O)[C@H](Cc1ccccc1)NC(=O)[C@H](CC(N)=O)NC(=O)[C@H](CC(N)=O)NC(=O)[C@H](CCCNC(=N)N)NC(=O)[C@H](CCCCN)NC(=O)CNC(=O)[C@H](CCCNC(=N)N)NC(=O)[C@H](CO)NC(=O)CNC(=O)CNC(=O)[C@H](Cc1ccc(O)cc1)NC(=O)[C@H](Cc1ccccc1)NC(=O)[C@H](Cc1ccccc1)NC(=O)[C@@H](NC(=O)CON=C(C)[C@]1(O)Cc2c(O)c4c(c(O)c2[C@@H](O[C@H]2C[C@H](N)[C@H](O)[C@H](C)O2)C1)C(=O)c1c(OC)cccc1C4=O)[C@@H](C)O)C(=O)N[C@H](C(=O)N[C@@H](CCC(=O)O)C(=O)N[C@@H](CCC(=O)O)C(=O)N[C@@H](Cc1ccc(O)cc1)C(=O)O)[C@@H](C)O)C[C@@H]3O[C@H]1C[C@H](N)[C@H](O)[C@H](C)O1 [compound 5, Dau=Aoa-TFFYGGSRGKRNNFK(Dau=Aoa)TEEY-OH]",32.3 ± 8.1,
"COc1cccc2c1C(=O)c1c(O)c3c(c(O)c1C2=O)C[C@@](O)(C(C)=NOCC(=O)NCCCC[C@H](NC(=O)CNC(=O)[C@H](CCCNC(=N)N)NC(=O)[C@H](CO)NC(=O)CNC(=O)CNC(=O)[C@H](Cc1ccc(O)cc1)NC(=O)[C@H](Cc1ccccc1)NC(=O)[C@H](Cc1ccccc1)NC(=O)[C@@H](N)[C@@H](C)O)C(=O)N[C@@H](CCCNC(=N)N)C(=O)N[C@@H](CC(N)=O)C(=O)N[C@@H](CC(N)=O)C(=O)N[C@@H](Cc1ccccc1)C(=O)N[C@@H](CCCCNC(=O)CON=C(C)[C@]1(O)Cc2c(O)c4c(c(O)c2[C@@H](O[C@H]2C[C@H](N)[C@H](O)[C@H](C)O2)C1)C(=O)c1c(OC)cccc1C4=O)C(=O)N[C@H](C(=O)N[C@@H](CCC(=O)O)C(=O)N[C@@H](CCC(=O)O)C(=O)N[C@@H](Cc1ccc(O)cc1)C(=O)O)[C@@H](C)O)C[C@@H]3O[C@H]1C[C@H](N)[C@H](O)[C@H](C)O1 [compound 6, H-TFFYGGSRGK(Dau=Aoa)RNNFK(Dau=Aoa)TEEY-OH]",21.6 ± 5.4,
"COc1cccc2c1C(=O)c1c(O)c3c(c(O)c1C2=O)C[C@@](O)(C(C)=NOCC(=O)NCCCC[C@H](NC(=O)CNC(=O)[C@H](CCCNC(=N)N)NC(=O)[C@H](CO)NC(=O)CNC(=O)CNC(=O)[C@H](Cc1ccc(O)cc1)NC(=O)[C@H](Cc1ccccc1)NC(=O)[C@H](Cc1ccccc1)NC(=O)[C@@H](NC(=O)CON=C(C)[C@]1(O)Cc2c(O)c4c(c(O)c2[C@@H](O[C@H]2C[C@H](N)[C@H](O)[C@H](C)O2)C1)C(=O)c1c(OC)cccc1C4=O)[C@@H](C)O)C(=O)N[C@@H](CCCNC(=N)N)C(=O)N[C@@H](CC(N)=O)C(=O)N[C@@H](CC(N)=O)C(=O)N[C@@H](Cc1ccccc1)C(=O)N[C@@H](CCCCNC(=O)CON=C(C)[C@]1(O)Cc2c(O)c4c(c(O)c2[C@@H](O[C@H]2C[C@H](N)[C@H](O)[C@H](C)O2)C1)C(=O)c1c(OC)cccc1C4=O)C(=O)N[C@H](C(=O)N[C@@H](CCC(=O)O)C(=O)N[C@@H](CCC(=O)O)C(=O)N[C@@H](Cc1ccc(O)cc1)C(=O)O)[C@@H](C)O)C[C@@H]3O[C@H]1C[C@H](N)[C@H](O)[C@H](C)O1 [compound 8, Dau=Aoa-TFFYGGSRGK(Dau=Aoa)RNNFK(Dau=Aoa)TEEY-OH]",23.6 ± 6.3,
